Reference: ChEMBL document CHEMBL1687831 (Antimicrob Agents Chemother, 2011)

Experiments:
[1] = Inhibition of beta-lactamase SHV1
[2] = Inhibition of acinetobacter-derived cephalosporinase
[3] = Inhibition of beta-lactamase AmpC expressed in Escherichia coli
[4] = Inhibition of beta-lactamase CTX-M-9 expressed in Escherichia coli BL21(DE3)
[5] = Inhibition of beta-lactamase TEM1 expressed in Escherichia coli JM109

Ki [1] [nM]	Ki [2] [nM]	Compound	Ki [3] [nM]	Ki [4] [nM]	Ki [5] [nM]
9800	–	CCN1CCN(C(=O)N[C@H](Cc2ccc(O)cc2)C(=O)NCB2OC(C)(C)C(C)(C)O2)C(=O)C1=O	–	–	–
17000	600	CCN1CCN(C(=O)N[C@@H](C(=O)NCB(O)O)c2ccc(O)cc2)C(=O)C1=O [CEFOPERAZONE BATSI]	–	–	–
–	310	CC(C)(O/N=C(\C(=O)NCB(O)O)c1csc(N)n1)C(=O)O [CEFTAZIDIME BATSI]	20	15	390
